Data as given in BindingDB's records for doi:10.1007/s00044-010-9377-3 (n/a, 2011).

assay: Inhibition of rat intestinal alpha-glucosidase using p-nitrophenyl- alpha-D-glucopyranoside as substrate preincubated for 5 min before addition of substrate measured after 10 min

Row | IC50 [µM] | Compound
1 | 74.1 | COc1ccc(/N=C/c2cc(Br)ccc2O)cc1
2 | 22.7 | O=[N+]([O-])c1ccc(/N=C/c2ccccc2O)cc1
3 | 8.8 | O=Cc1cc(Br)ccc1O [US8614253,3-44]
